# Assay results: the supplement of paper PMC11208160
# Test: recombinant UMI read abundance after kanamycin selection (control-corrected) (log10(CPM+1)); higher = more efficient recombination; extreme values may be limits of the assay; sequences stand for … in AGTGCAGAGAAAATCGGCCAGTTTTCTCTGCCTGCAGTCCGCATGCCGTGGGACCCCTTGGGTTCTAACCTGTTGCCTAGATTTATGCAGCGGACTGCCTTTCTCCCAAAGTGATAAACCGG…AGGTTGGTTTCACT; site = the 11-nt donor
# Method in brief: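 Pooled Escherichia coli screen of donor and donor-binding-loop pairs for the IS621 bridge recombinase. Each pair sits with a 12-nt UMI on a plasmid carrying a promoterless kanamycin gene. The library was co-electroporated with a target plasmid encoding a fixed target and T7-inducible recombinase, then plated with IPTG (0.07 mM) plus kanamycin, or unselected, each in two replicates. Recombinant UMIs were PCR-amplified across the donor–target junction and sequenced. Counts became CPM, averaged over replicates, scaled by control-derived factors and reported as log10(CPM+1).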
row,Sequence,recombinant UMI read abundance (log10)
1,AGGAAGACATGGACCGGTTTTCCCGGTAATCCGTATTTGCG (site AGGAAGACTGG),0
2,AACGGCCCATGGACCGGTTTTCCCGGTAATCCGTATTTGTT (site AACGGCCCTAA),0
3,CTACTAACATGGACCGGTTTTCCCGGTAATCCGTATTTGAA (site CTACTAACTTA),0.909
4,ACAGTATCATGGACCGGTTTTCCCGGTAATCCGTATTTGCA (site ACTGGATCTTG),0
5,CGCGGAGCATGGACCGGTTTTCCCGGTAATCCGTATTTGGT (site CGCGGAGCTAC),1.14
6,CCCTAGCCATGGACCGGTTTTCCCGGTAATCCGTATTTGCC (site CCCGAGCCTGG),0
7,TCCACCGCATGGACCGGTTTTCCCGGTAATCCGTATTTGAG (site TCCACCGCTCG),0.0211
8,GTCACTGCATGGACCGGTTTTCCCGGTAATCCGTATTTGAT (site GTCACTGCTAT),1.99
9,GCTTGCCCATGGACCGGTTTTCCCGGTAATCCGTATTTGAT (site GCTTCCCCTAT),0.0974
10,ATTTAGGCATGGACCGGTTTTCCCGGTAATCCGTATTTGGC (site ATGTAGGCTGC),0.42
11,CGCCTTCCATGGACCGGTTTTCCCGGTAATCCGTATTTGGT (site CGCCTTCCTAC),0.0121
12,TATAACTCATGGACCGGTTTTCCCGGTAATCCGTATTTGGC (site TATAACTCTGC),1.35
13,TGTGGAACATGGACCGGTTTTCCCGGTAATCCGTATTTGTT (site AGTGGAACTAA),0.0127
14,ACATGTACATGGACCGGTTTTCCCGGTAATCCGTATTTGTG (site ACATGTACTCA),1.07
15,GGCAATCCATGGACCGGTTTTCCCGGTAATCCGTATTTGAA (site GGCAATCCTGT),0
16,CTGCTATCATGGACCGGTTTTCCCGGTAATCCGTATTTGCT (site CTGCTATCTAG),2.33
17,ACAGTATCATGGACCGGTTTTCCCGGTAATCCGTATTTGCA (site ACAGACTCTTG),1.68
18,CGATAGACATGGACCGGTTTTCCCGGTAATCCGTATTTGTT (site CGATGGACTAA),0.0144
19,CGTTGACCATGGACCGGTTTTCCCGGTAATCCGTATTTGGA (site CGTTGACCTTC),0.0127
20,ATTCGAACATGGACCGGTTTTCCCGGTAATCCGTATTTGTT (site ATTCGAACTAA),0.18
21,GTGGTTCCATGGACCGGTTTTCCCGGTAATCCGTATTTGGT (site GTTGTTCCTAC),0.0137
22,GTGAAAACATGGACCGGTTTTCCCGGTAATCCGTATTTGCT (site GCGAAAACTAG),0
23,GTTTGAGCATGGACCGGTTTTCCCGGTAATCCGTATTTGCA (site GTTAGAGCTTG),1.32
24,TCGTTGTCATGGACCGGTTTTCCCGGTAATCCGTATTTGTC (site TCGTTGTCTGA),0.41
25,CATCTCTCATGGACCGGTTTTCCCGGTAATCCGTATTTGTA (site CTTCTCTCTTA),1.98

row,Sequence,recombinant UMI read abundance (log10)
1,CAACTCCCATGGACCGGTTTTCCCGGTAATCCGTATTTGCT (site CAATTCCCTAG),0.765
2,CGTCTCCCATGGACCGGTTTTCCCGGTAATCCGTATTTGAG (site CGTCTCCCTCT),0.0129
3,ATGCGAGCATGGACCGGTTTTCCCGGTAATCCGTATTTGCT (site ATGCGAGCTAG),2.5
4,ACAGTATCATGGACCGGTTTTCCCGGTAATCCGTATTTGCA (site ACAGTATCTTG),2.67
5,CGACCGACATGGACCGGTTTTCCCGGTAATCCGTATTTGTT (site CGAGCGACTAA),0.00884
6,CGTCAGACATGGACCGGTTTTCCCGGTAATCCGTATTTGAG (site CGTGAGACTCT),0.016
7,ACAGCTTCATGGACCGGTTTTCCCGGTAATCCGTATTTGCA (site ACAGCTTCTTG),2.59
8,CCCTAGCCATGGACCGGTTTTCCCGGTAATCCGTATTTGCC (site CCCAAGCCTGG),0
9,GAGCTTCCATGGACCGGTTTTCCCGGTAATCCGTATTTGTC (site GAGCTTCCTGA),0.576
10,GCTTGCCCATGGACCGGTTTTCCCGGTAATCCGTATTTGAT (site GCTTGCCCTAG),0
11,ACAGTATCATGGACCGGTTTTCCCGGTAATCCGTATTTGCA (site ACAGGATCTTG),1.01
12,AGGTTCCCATGGACCGGTTTTCCCGGTAATCCGTATTTGAG (site AGGTTCCCTCC),0.0175
13,ACAGACCCATGGACCGGTTTTCCCGGTAATCCGTATTTGCC (site ACAGACCCTGG),1.2
14,GCAGAATCATGGACCGGTTTTCCCGGTAATCCGTATTTGCA (site ACAGTATCTTG),1.67
15,ATAGTCGCATGGACCGGTTTTCCCGGTAATCCGTATTTGCG (site GTAGTCGCTCG),0.0129
16,CGCGGAACATGGACCGGTTTTCCCGGTAATCCGTATTTGTT (site CGAGGAACTAA),0.0752
17,TATTATGCATGGACCGGTTTTCCCGGTAATCCGTATTTGGA (site GATTATGCTTC),0.00418
18,ATCCCCTCATGGACCGGTTTTCCCGGTAATCCGTATTTGGA (site ATCCCCTCTTC),1.95
19,CCCATATCATGGACCGGTTTTCCCGGTAATCCGTATTTGTC (site TCCATATCTGA),0
20,TAGCTAACATGGACCGGTTTTCCCGGTAATCCGTATTTGAA (site TAGCTACCTTT),0.00585
21,AATGTGTCATGGACCGGTTTTCCCGGTAATCCGTATTTGAC (site AGTGTGTCTGT),0
22,TAGCTATCATGGACCGGTTTTCCCGGTAATCCGTATTTGAA (site TAGCTAACTTT),0.00325
23,CTGGGCCCATGGACCGGTTTTCCCGGTAATCCGTATTTGCC (site CTGGGCCCTGG),0
24,TCCACCCCATGGACCGGTTTTCCCGGTAATCCGTATTTGCG (site TCCACCCCTCG),0.0148
25,GATTGGACATGGACCGGTTTTCCCGGTAATCCGTATTTGAG (site GATTGGACTGT),0

row,Sequence,recombinant UMI read abundance (log10)
1,TTCTATACATGGACCGGTTTTCCCGGTAATCCGTATTTGAC (site CTCTATACTGT),0
2,CAAAAGCCATGGACCGGTTTTCCCGGTAATCCGTATTTGTC (site CAAAAGCCTGA),0
3,CATCGCACATGGACCGGTTTTCCCGGTAATCCGTATTTGGC (site CATCGCACTGC),2.26
4,AATTATGCATGGACCGGTTTTCCCGGTAATCCGTATTTGCA (site AATTATGCTTG),1.85
5,AAATGAGCATGGACCGGTTTTCCCGGTAATCCGTATTTGGG (site CAATGAGCTCC),0.247
6,GAAGCTTCATGGACCGGTTTTCCCGGTAATCCGTATTTGTT (site GAAGATTCTAA),0
7,ACATCTACATGGACCGGTTTTCCCGGTAATCCGTATTTGTT (site ACATCTACTGA),0
8,CATTTCTCATGGACCGGTTTTCCCGGTAATCCGTATTTGTT (site CATTTCTCTAA),1.52
9,CAAACACCATGGACCGGTTTTCCCGGTAATCCGTATTTGAC (site CAAACACCTGT),0.00914
10,CTACCTACATGGACCGGTTTTCCCGGTAATCCGTATTTGAG (site CTTCCTACTCT),0.0155
11,ATCGTGCCATGGACCGGTTTTCCCGGTAATCCGTATTTGTT (site ATCGTGCCTAA),0.0076
12,AGGTGCACATGGACCGGTTTTCCCGGTAATCCGTATTTGAA (site AGGTGCACTTT),0.73
13,AATGTGACATGGACCGGTTTTCCCGGTAATCCGTATTTGCT (site AATGTGACTAG),2.65
14,ACTAGTGCATGGACCGGTTTTCCCGGTAATCCGTATTTGCT (site ACTAGTGCTAG),1.37
15,GCCTGCCCATGGACCGGTTTTCCCGGTAATCCGTATTTGAT (site GCATGCCCTAT),0.0137
16,CGTGACTCATGGACCGGTTTTCCCGGTAATCCGTATTTGTA (site CGTGACTCTTA),3.02
17,CGATAATCATGGACCGGTTTTCCCGGTAATCCGTATTTGCT (site CGATAATCTAG),2.99
18,CAATGATCATGGACCGGTTTTCCCGGTAATCCGTATTTGCT (site CAATGATCTAG),2.19
19,CCCTAGCCATGGACCGGTTTTCCCGGTAATCCGTATTTGCC (site CCGTAGCCTGG),0
20,AGGACTACATGGACCGGTTTTCCCGGTAATCCGTATTTGAC (site AGGACCACTGT),0.969
21,GTGCATTCATGGACCGGTTTTCCCGGTAATCCGTATTTGGT (site GTGCATCCTAC),0.0125
22,TGTCGCGCATGGACCGGTTTTCCCGGTAATCCGTATTTGCA (site TGTCGCGCTTG),0.897
23,GACTCCTCATGGACCGGTTTTCCCGGTAATCCGTATTTGCC (site CACTCCTCTGG),1.86
24,CTACTAACATGGACCGGTTTTCCCGGTAATCCGTATTTGGA (site CTACTAACTCC),0.516
25,GAGATTCCATGGACCGGTTTTCCCGGTAATCCGTATTTGGG (site GAGATTCCTCC),0.0141
